# Reference: patent publication EP0973746B1, “SUBSTITUTED 3-CYANO QUINOLINES” (Wyeth Holdings Corporation, priority 1997, dated 1998)
# Read-outs that look alike come from different tables or passages of the source.
# Key:
# HTB161 = assay: Inhibition of cancer cell growth as measured by cell number, HTB161; type: cell-based; conditions: Homo sapiens, read-out: IC50 HTB161
# A2780DDP = assay: Inhibition of cancer cell growth as measured by cell number, A2780DDP; type: cell-based; conditions: Homo sapiens, read-out: IC50 A2780DDP
# LX1 = assay: Inhibition of cancer cell growth as measured by cell number, LX1; type: cell-based; conditions: Homo sapiens, read-out: IC50 LX1
# LNCAP = assay: Inhibition of cancer cell growth as measured by cell number, LNCAP; type: cell-based; conditions: Homo sapiens
# HCT15 = assay: Inhibition of cancer cell growth as measured by cell number, HCT15; type: cell-based; conditions: Homo sapiens, read-out: IC50 HCT15
# SKBR3 = assay: Inhibition of cancer cell growth as measured by cell number, SKBR3; type: cell-based, human; conditions: Homo sapiens;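 also: SK-BR-3 cells were selected as a line overexpressing HER2/neu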
# Text: (§1) The cell lines were chosen since they overexpressed epidermal growth factor receptor (EGFR) (i.e. A431) or HER2/neu (SKBR3), or had little to no expression of the these receptors (SW620, LOX, MCF7).
# A431 [1] = assay: Inhibition of cancer cell growth as measured by cell number, A431; type: cell-based, human; conditions: Homo sapiens, A-431, 48 h;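 also: human A431 line, picked because it overexpresses epidermal growth factor receptor (EGFR)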
# Text: as §1
# SW620 = assay: Inhibition of cancer cell growth as measured by cell number, SW620; type: cell-based, human; conditions: Homo sapiens, SW-620, 48 h;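 also: SW620 was included as a cell line with little or no EGFR or HER2/neu expression, in contrast to receptor-overexpressing lines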
# Text: as §1
# A549 = assay: Inhibition of cancer cell growth as measured by cell number, A549; type: cell-based; conditions: Homo sapiens, read-out: IC50 A549
# COLO205 = assay: Inhibition of cancer cell growth as measured by cell number, COLO205; type: cell-based; conditions: Homo sapiens, read-out: IC50 COLO205
# MIP = assay: Inhibition of cancer cell growth as measured by cell number, MIP; type: cell-based; conditions: Homo sapiens; cell number, Sulforhodamine B, 48 hours exposure; Table 4; read-out: IC50 MIP
# CX1 = assay: Inhibition of cancer cell growth as measured by cell number, CX1; type: cell-based; conditions: Homo sapiens, read-out: IC50 CX1
# LOX = assay: Inhibition of cancer cell growth as measured by cell number, LOX; type: cell-based, human; conditions: Homo sapiens, LOX, 48 h;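 also: LOX cells served as a line with low or absent EGFR and HER2/neu expression, in contrast to receptor-overexpressing lines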
# Text: as §1
# [2] = target: recombinant human MEK 1 (MAPKK) and recombinant human ERK2 (MAPK); assay: Mitogen Activated Protein Kinase (MAPK) assay, two component coupled MEK 1 / ERK2; type: biochemical; conditions: separate entries for the same compound = evaluated more than one time;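 also: MEK 1-activated ERK2 phosphorylates MBP or Myc peptide with 33P-ATP, filter capture and scintillation counting, inhibitor preincubated with ERK2 30 min at 0 °C, inhibition relative to uninhibited control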
# A431 [3] = assay: Inhibition of cell growth by incorporation of [3H]-thymidine, A431; type: cell-based, human; conditions: Homo sapiens
# Experimental: Representative compounds of this invention were evaluated for their ability to inhibit the growth of the cell lines described below in vitro. The inhibition is quantitated by measuring the decrease in the incorporation of radio-labeled thymidine when the cells are grown in the presence of the inhibitor. […] Cells were routinely grown in a humidified incubator in 5% CO2 in air.
# Cells were seeded at 10,000 cells/well in 96 well plates in complete media and allowed to grow to log phase. At this stage the complete media was replaced with media containing 0.5% FBS (for cells growing in 10% FBS) or media lacking epidermal growth factor (EGF) (for cells growing in serum free media). […] Media with test compound was then removed and complete media was added back. The cells were allowed to grow for 18 hours. This is followed by incubation in [^3H]thymidine (1mCi/ml in serum/EGF media) for 4 hours. Cells were lysed in 0.5 M NaOH for at least 30 min at 37°C and radioactivity analyzed.
# The % inhibition of the compound evaluated was determined for at least three different concentrations and the IC50 value evaluated from the dose response curve. […] CPM(control) is in units of counts per minute and is a number expressing the amount of [^3H]thymidine incorporated onto the DNA when cells are grown in the absence of test compound as measured by liquid scintillation counting.
# DU145 = assay: Inhibition of cancer cell growth as measured by cell number, DU145; type: cell-based; conditions: Homo sapiens, read-out: IC50 DU145
# HL60 = assay: Inhibition of cancer cell growth as measured by cell number, HL60; type: cell-based; conditions: Homo sapiens, read-out: IC50 HL60
# NEC = assay: Inhibition of cancer cell growth as measured by cell number, NEC; type: cell-based; conditions: Homo sapiens, read-out: IC50 NEC
# B7474 = assay: Inhibition of cancer cell growth as measured by cell number, B7474; type: cell-based; conditions: Homo sapiens, read-out: IC50 B7474
# MCF7 = assay: Inhibition of cancer cell growth as measured by cell number, MCF7; type: cell-based, human; conditions: Homo sapiens, MCF7, 48 h;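 also: MCF7 was included as a line with little or no EGFR or HER2/neu expression, in contrast to the receptor-overexpressing lines of the panel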
# Text: as §1
# T47D = assay: Inhibition of cancer cell growth as measured by cell number, T47D; type: cell-based; conditions: Homo sapiens
# CACO2 = assay: Inhibition of cancer cell growth as measured by cell number, CACO2; type: cell-based; conditions: Homo sapiens, read-out: IC50 CACO2
# CCL228 = assay: Inhibition of cancer cell growth as measured by cell number, CCL228; type: cell-based; conditions: Homo sapiens, read-out: IC50 CCL228
# PC3 = assay: Inhibition of cancer cell growth as measured by cell number, PC3; type: cell-based; conditions: Homo sapiens, read-out: IC50 PC3
# CCRF-CFM = assay: Inhibition of cancer cell growth as measured by cell number, CCRF-CFM; type: cell-based; conditions: Homo sapiens, read-out: IC50 CCRF-CFM
# A27805 = assay: Inhibition of cancer cell growth as measured by cell number, A27805; type: cell-based; conditions: Homo sapiens, read-out: IC50 A27805
# SW948 = assay: Inhibition of cancer cell growth as measured by cell number, SW948; type: cell-based; conditions: Homo sapiens, read-out: IC50 SW948
# LS174T = assay: Inhibition of cancer cell growth as measured by cell number, LS174T; type: cell-based; conditions: Homo sapiens
# [4] = target: epidermal growth factor receptor kinase (Homo sapiens, UniProt P00533); assay: biochemical
# [5] = cell number, Sulforhodamine B, 48 hours exposure, Table 4
# [6] = cell number, Sulforhodamine B, 48 hours exposure, Table 6
# [7] = read-out: IC50 A431, cell number, Sulforhodamine B, 48 hours exposure, Table 6
# [8] = read-out: IC50 SW620, cell number, Sulforhodamine B, 48 hours exposure, Table 4
# [9] = read-out: IC50 LOX, cell number, Sulforhodamine B, 48 hours exposure, Table 6
# Sequence of epidermal growth factor receptor kinase (P00533 25-1210): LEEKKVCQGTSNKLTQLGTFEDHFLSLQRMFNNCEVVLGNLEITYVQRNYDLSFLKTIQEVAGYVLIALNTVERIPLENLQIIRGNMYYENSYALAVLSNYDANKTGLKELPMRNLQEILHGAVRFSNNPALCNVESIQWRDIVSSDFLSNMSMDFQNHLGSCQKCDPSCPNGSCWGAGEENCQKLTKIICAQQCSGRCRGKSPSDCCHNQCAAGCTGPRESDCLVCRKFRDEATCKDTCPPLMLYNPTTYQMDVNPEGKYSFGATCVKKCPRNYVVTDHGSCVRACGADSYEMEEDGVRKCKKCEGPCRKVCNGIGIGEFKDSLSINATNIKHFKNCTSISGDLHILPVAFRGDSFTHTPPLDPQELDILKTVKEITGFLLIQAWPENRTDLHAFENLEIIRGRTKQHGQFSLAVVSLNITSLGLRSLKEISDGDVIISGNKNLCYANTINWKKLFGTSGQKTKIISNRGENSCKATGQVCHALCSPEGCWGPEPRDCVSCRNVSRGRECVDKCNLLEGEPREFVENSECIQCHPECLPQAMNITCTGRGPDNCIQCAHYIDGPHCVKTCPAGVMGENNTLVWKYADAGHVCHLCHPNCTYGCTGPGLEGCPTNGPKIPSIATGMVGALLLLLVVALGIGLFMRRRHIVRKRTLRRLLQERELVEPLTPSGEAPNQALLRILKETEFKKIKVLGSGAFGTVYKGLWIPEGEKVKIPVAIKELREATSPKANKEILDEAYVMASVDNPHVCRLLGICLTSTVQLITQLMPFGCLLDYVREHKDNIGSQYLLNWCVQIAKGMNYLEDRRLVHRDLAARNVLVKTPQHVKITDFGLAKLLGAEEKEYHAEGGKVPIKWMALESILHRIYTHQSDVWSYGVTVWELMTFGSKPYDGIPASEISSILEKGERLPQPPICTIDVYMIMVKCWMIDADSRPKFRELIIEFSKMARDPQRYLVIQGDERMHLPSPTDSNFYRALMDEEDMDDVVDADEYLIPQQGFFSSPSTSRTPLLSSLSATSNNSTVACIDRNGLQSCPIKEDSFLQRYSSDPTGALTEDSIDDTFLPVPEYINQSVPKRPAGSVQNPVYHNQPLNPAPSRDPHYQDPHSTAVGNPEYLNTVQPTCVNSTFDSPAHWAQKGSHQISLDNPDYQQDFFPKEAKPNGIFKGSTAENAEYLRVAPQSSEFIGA
compound,measurement,setting,value
"COc1cc2ncc(C#N)c(NC3CCCCC3)c2cc1OC [Example 38, 4-(Cyclohexyamino)-6,7-dimethoxy-3-quinolinecarbonitrile]",IC50,HTB161; [5],3.19 µg/mL
same,IC50,A2780DDP; [5],6.56 µg/mL
same,IC50,"LX1; LX-1, cell number, Sulforhodamine B, 48 hours exposure, Table 6",7.52 µg/mL
same,IC50,"LNCAP; cell number, Sulforhodamine B, 48 hours exposure, Table 7, read-out: IC50 LNCAP",4.58 µg/mL
same,IC50,"HCT15; HCT-15, cell number, Sulforhodamine B, 48 hours exposure, Table 5",5.16 µg/mL
same,IC50,"SKBR3; SK-BR-3, cell number, Sulforhodamine B, 48 hours exposure, Table 7, read-out: IC50 SKBR3",7.14 µg/mL
same,IC50,"A431 [1]; cell number, Sulforhodamine B, 48 hours exposure, Table 6, read-out: IC50 A431",4.73 µg/mL
same,IC50,"SW620; cell number, Sulforhodamine B, 48 hours exposure, Table 4, read-out: IC50 SW620",31.7 µg/mL
same,IC50,"A549; A549, cell number, Sulforhodamine B, 48 hours exposure, Table 6",7.33 µg/mL
same,IC50,"COLO205; COLO 205, cell number, Sulforhodamine B, 48 hours exposure, Table 4",6.43 µg/mL
same,IC50,MIP,7.75 µg/mL
same,IC50,"CX1; CX-1, cell number, Sulforhodamine B, 48 hours exposure, Table 4",5.62 µg/mL
same,IC50,"LOX; cell number, Sulforhodamine B, 48 hours exposure, Table 6, read-out: IC50 LOX",8.12 µg/mL
same,IC50,[2],45000 nM
same,IC50,"A431 [3]; A-431, [3H]-thymidine incorporation, A431, read-out: IC50 A431",35000 nM
same,IC50,"DU145; DU-145, cell number, Sulforhodamine B, 48 hours exposure, Table 7",5.15 µg/mL
same,IC50,"HL60; HL-60, cell number, Sulforhodamine B, 48 hours exposure, Table 7",4.27 µg/mL
same,IC50,NEC; [6],6.53 µg/mL
same,IC50,B7474; [6],17 µg/mL
same,IC50,"MCF7; cell number, Sulforhodamine B, 48 hours exposure, Table 5, read-out: IC50 MCF7",6 µg/mL
same,IC50,"T47D; cell number, Sulforhodamine B, 48 hours exposure, Table 6, read-out: IC50 T47D",5.98 µg/mL
same,IC50,"CACO2; Caco-2, cell number, Sulforhodamine B, 48 hours exposure, Table 5",5.62 µg/mL
same,IC50,"CCL228; cell number, Sulforhodamine B, 48 hours exposure, Table 5",8.49 µg/mL
same,IC50,"PC3; PC-3, cell number, Sulforhodamine B, 48 hours exposure, Table 7",9.33 µg/mL
same,IC50,"CCRF-CFM; cell number, Sulforhodamine B, 48 hours exposure, Table 7",4.39 µg/mL
same,IC50,A27805; [5],4.58 µg/mL
same,IC50,"SW948; SW948, cell number, Sulforhodamine B, 48 hours exposure, Table 5",10.4 µg/mL
same,IC50,"LS174T; cell number, Sulforhodamine B, 48 hours exposure, Table 5, read-out: IC50 LS174T",5.37 µg/mL
"COc1cc2ncc(C#N)c(Nc3cccc(Cl)c3)c2cc1OC [Example 41, 4-[(3-Chlorophenyl)amino]-6,7-dimethoxy-3-quinolinecarbonitrile]",IC50,HTB161; 48 h,7.87 µg/mL
same,IC50,A2780DDP; 48 h,6.25 µg/mL
same,IC50,"LX1; LX-1, 48 h",48.7 µg/mL
same,IC50,"LNCAP; 48 h, read-out: IC50 LNCAP",3.53 µg/mL
same,IC50,"HCT15; HCT-15, 48 h",4.21 µg/mL
same,IC50,"SKBR3; SK-BR-3, 48 h, read-out: IC50 SKBR3, cell number, Sulforhodamine B, 48 hours exposure, Table 7",20.6 µg/mL
same,IC50,"SKBR3; SK-BR-3, 48 h, read-out: IC50 SKBR3, cell number, Sulforhodamine B, 48 hours exposure, Table 8",0.48 µg/mL
same,IC50,A431 [1]; [7],0.813 µg/mL
same,IC50,"A431 [1]; read-out: IC50 A431, cell number, Sulforhodamine B, 48 hours exposure, Table 8",0.24 µg/mL
same,IC50,SW620; [8],14.7 µg/mL
same,IC50,"SW620; read-out: IC50 SW620, cell number, Sulforhodamine B, 48 hours exposure, Table 8",2.23 µg/mL
same,IC50,"A549; A549, 48 h",25 µg/mL
same,IC50,"COLO205; COLO 205, 48 h",6.13 µg/mL
same,IC50,MIP,4.09 µg/mL
same,IC50,"CX1; CX-1, 48 h",7.25 µg/mL
same,IC50,LOX; [9],0.961 µg/mL
same,IC50,"LOX; read-out: IC50 LOX, cell number, Sulforhodamine B, 48 hours exposure, Table 8",1.33 µg/mL
same,IC50,[2],1400 nM
same,IC50,"A431 [3]; A-431, read-out: IC50 A431",1500 nM
same,IC50,"DU145; DU-145, 48 h",0.913 µg/mL
same,IC50,"HL60; HL-60, 48 h",3.23 µg/mL
same,IC50,NEC; 48 h,8.46 µg/mL
same,IC50,B7474; 48 h,6.26 µg/mL
same,IC50,"MCF7; read-out: IC50 MCF7, cell number, Sulforhodamine B, 48 hours exposure, Table 5",24.8 µg/mL
same,IC50,"MCF7; read-out: IC50 MCF7, cell number, Sulforhodamine B, 48 hours exposure, Table 8",6.86 µg/mL
same,IC50,"T47D; 48 h, read-out: IC50 T47D",8.5 µg/mL
same,IC50,"CACO2; Caco-2, 48 h",2.11 µg/mL
same,IC50,CCL228; 48 h,18.5 µg/mL
same,IC50,"PC3; PC-3, 48 h",17.5 µg/mL
same,IC50,CCRF-CFM; 48 h,8.29 µg/mL
same,IC50,A27805; 48 h,7.73 µg/mL
same,IC50,"SW948; SW948, 48 h",14.1 µg/mL
same,IC50,"LS174T; 48 h, read-out: IC50 LS174T",2.92 µg/mL
same,IC50,[4],200 nM
"COc1cc2ncc(C#N)c(Nc3ccc(F)cc3)c2cc1OC [Example 46, 4-((4-Fluorophenyl)amino]-6,7-dimethoxy-3-quinolinecarbonitrile]",IC50,HTB161; 48 h,9.59 µg/mL
same,IC50,A2780DDP; 48 h,5.86 µg/mL
same,IC50,"LX1; LX-1, 48 h",34 µg/mL
same,IC50,"HCT15; HCT-15, 48 h",5.6 µg/mL
same,IC50,A431 [1]; [7],8.01 µg/mL
same,IC50,SW620; [8],> 100 µg/mL
same,IC50,"A549; A549, 48 h",4.85 µg/mL
same,IC50,MIP,5.6 µg/mL
same,IC50,"CX1; CX-1, 48 h",9.7 µg/mL
same,IC50,LOX; [9],5.35 µg/mL
same,IC50,"A431 [3]; A-431, read-out: IC50 A431",1000 nM
same,IC50,"DU145; DU-145, 48 h",3.63 µg/mL
same,IC50,"HL60; HL-60, 48 h",6.02 µg/mL
same,IC50,B7474; 48 h,32.9 µg/mL
same,IC50,"T47D; 48 h, read-out: IC50 T47D",> 100 µg/mL
same,IC50,"CACO2; Caco-2, 48 h",6.03 µg/mL
same,IC50,CCL228; 48 h,54 µg/mL
same,IC50,"PC3; PC-3, 48 h",> 100 µg/mL
same,IC50,CCRF-CFM; 48 h,61.7 µg/mL
same,IC50,A27805; 48 h,7.41 µg/mL
same,IC50,"SW948; SW948, 48 h",> 100 µg/mL
same,IC50,"LS174T; 48 h, read-out: IC50 LS174T",7.13 µg/mL
same,IC50,[4],8830 nM
